Patent publication US20050043369A1, “Bactericidal antimicrobial methods and compositions for use in treating gram positive infections” (Protez Pharmaceuticals Inc., priority 2000, published 2005)
Read-outs that look alike come from different tables or passages of the source.

Tests used:
[1] = system: S. aureus strain ATTC 29213; test: Characterization of killing by INF 401 plus chloramphenicol (viability, morphology, protein, DNA, metal dependence); format: cell-based, Staphylococcus aureus; conditions: reversed by exogenous Fe3+
Procedure: Time kill study of the effect of NF 401 in combination with chloramphenicol. Exponentially growing cells (S. aureus strain 29213) were diluted to OD600 0.1 in LB supplemented with 20 μg/ml of chloramphenicol (Cm) in the presence or absence of INF 401 (2 μg/ml) and incubated with shaking at 37° C. At indicated time points cells were harvested, washed with LB and plated on LB agar plates. Number of colony forming units (CFUs) was determined after overnight incubation.
Time kill study of the effect of iron on the bactericidal activity of INF 401. S. aureus strain 29213 was grown overnight in iron-limited Staphylococcal Siderophore Detection (SSD) medium (Heinrichs, 1999) supplemented with 2 μM FeCl3, washed with SSD and diluted 1:100 into the fresh medium containing 0, 2 or 50 μm FeCl3. Exponentially growing cells were diluted to OD600 0.01 in the corresponding medium supplemented when indicated with 20 μg/ml of chloramphenicol (Cm) and 2 μg/ml of INF 401. At 0, 1, 2 and 3.5 hours cells were plated in different dilutions to the LB agar plates and number of colony forming units (CFUs) was counted next day.

[2] = system: S. aureus SA1199; test: Checkerboard two-fold broth microdilution, MIC and MBC; format: cell-based, Staphylococcus aureus; conditions: for MBC^b = MBC in the presence of 5 μg/ml of INF 401: plus 5 μg/ml INF 401
Procedure: Checkerboard titration was performed with INF 401 and erythromycin to quantitate the effects of the combination on Staphylococcal growth using two-fold serial broth microdilution. After overnight incubation, cells were transferred to fresh medium, as described above, to determine those combinations that were bactericidal to S. aureus. […] Although not determined according to NCCLS recommended procedures ([…]), the inventors considered this the Minimal Bactericidal Concentration (MBC).
The inventors next evaluated whether INF 401 was bactericidal in combination with other protein synthesis inhibitors which are bacteriostatic to S. aureus. Checkerboard studies were performed with two-fold dilutions of each antibiotic in combination with INF 401 using the assay described above in Example 2. After overnight incubation the MIC of each antibiotic was determined by visualization of bacterial growth. […] The MBC of each antibiotic was determined as described in Example 2 in the absence or presence of INF 401.

[3] = system: S. aureus (SA1199); test: Time kill studies (CFU counts); format: cell-based, Staphylococcus aureus
Procedure: FIG. 5A, FIG. 5B and FIG. 5C. […]
The initial inoculum number was determined by plating an appropriate dilution on LB agar plates and determining the number of colony forming units (CFUs). At different time points an aliquot was withdrawn from each tube and cell viability was determined by plating an appropriate dilution and counting CFUs after overnight incubation.

[4] = system: S. pneumoniae; test: Bactericidal activity (MBC) of translational inhibitors with or without INF 401 in S. pneumoniae; format: cell-based, Streptococcus pneumoniae; conditions: antibiotic alone
Source text: It would be desirable that an antibiotic potentiator of the present invention is active not only in S. aureus but also in other bacterial pathogens. The inventors have begun studies to investigate whether INF 401 can also potentiate the activity of translational inhibitors in another Gram positive pathogen, S. pneumoniae.

[5] = system: S. aureus SA1199; test: Checkerboard two-fold broth microdilution, MIC and MBC; format: cell-based, Staphylococcus aureus; conditions: Table 2, plus 10 μg/ml INF 402, unit not given
[6] = system: S. aureus strain SA1199; test: Screening and titration of potentiators with erythromycin (4 μg/ml), viability read by transfer to fresh medium; format: cell-based, Staphylococcus aureus; conditions: for lowest concentration at which the potentiator is active (titration in the presence of erythromycin): erythromycin 4 μg/ml, S. aureus SA1199; for effect on viability of S. aureus in combination with a bacteriostatic concentration of erythromycin: library screen hit; for Activity (minimal concentration required to kill 99.9% of S. aureus): in the presence of 4 μg/ml erythromycin
Procedure: In an exemplary screening assay, in order to identify a candidate acyl hydrazide, oxy amide or 8-hydroxy quinoline composition as an antibacterial agent potentiator, the S. aureus strain SA1199 may be used. The procedure for screening is as follows: logarithmically growing S. aureus SA1199 are inoculated to a final OD600 of 0.002 into 150 μl of LB medium containing a bacteriostatic concentration of an antimicrobial agent for that strain, for example, erythromycin (4 μg/ml) at four times the Minimal Inhibitory
Concentration (MIC). […] In preliminary studies the inventors determined that under these conditions up to 2000 viable cells were transferred after incubation with erythromycin. As confirmed by broth microdilution, at least a 1000-fold reduction in viability was required to see no visible growth after 20 hours. Acyl hydrazide, oxy amide or 8-hydroxy quinoline antibiotic potentiators may be identified as those compounds that increase the bactericidal effect of the erythromycin.
The macrolide erythromycin was chosen in the initial screen for two reasons: first, its mechanism of inhibition of protein synthesis is well characterized and second, as a macrolide, erythromycin is representative of an expanding class of agents which includes the second most prescribed antibiotic, azithromycin.
In preliminary studies the inventors determined that under these conditions up to 2000 viable cells were transferred after incubation with erythromycin. As confirmed by broth microdilution, at least a 1000-fold reduction in viability was required to see no visible growth after 20 h.
Next the activity of the hit compounds was compared by titration of the compounds in the presence of erythromycin at 4 μg/ml as described above.
(§1) Activity of the compound is depicted as the minimal concentration required to kill 99.9% of S. aureus in the presence of 4 μg/ml erythromycin.

[7] = system: S. aureus ATCC 29213; test: MBEC assay system, checkerboard: planktonic MIC and biofilm MBEC; format: cell-based, Staphylococcus aureus; conditions: INF 401 at 0.3 μg/ml where in label
Procedure: These studies were performed via the method of Dr. Howard Ceri (University of Calgary), who recently developed a method for the routine determination of the antibiotic susceptibility of biofilms. To date, the inventors have tested the effect of the combination of INF 401 on the ability of either clindamycin or rifampin to eradicate S. aureus biofilms in vitro. S. aureus ATCC 29213 was selected for the study as previous studies of this isolate as a biofilm had been conducted and the isolate served as a quality assurance organism for NCCLS standardization of antibiotic testing. Biofilms were formed as previously described for this organism (Ceri et al., 1999) using the MBEC™ assay system. Checkerboard studies were performed with each antibiotic versus INF 401.

[8] = system: S. aureus SA 29213; test: 55Fe transport assay (intracellular iron accumulation); format: cell-based, Staphylococcus aureus; conditions: compound at 2 μg/ml; S. aureus SA 29213
Procedure: Next, investigated was whether INF 401 affects intracellular iron accumulation. An ^55Fe transport assay (modified from Sebulsky, 2000) was used to examine the ability of INF 401 to transport iron inside the cell. Briefly, exponentially growing cells were diluted to OD600 0.1 in LB, incubated with ^55FeCl3 for 30 min at 37° C., washed and counted in scintillation fluid using the tritium channel of a scintillation system. […] However, the presence of INF 401 in either the absence or presence of antibiotic led to a dramatic increase in iron accumulation (209,215 and 231,621 DPM, respectively).
as §1

[9] = Staphylococcus aureus, SA1199, read-out: MBC^a = MBC in the absence of INF 401, Table 1, S. aureus SA1199, antibiotic alone, unit inferred
[10] = Staphylococcus aureus, SA1199, read-out: MBC^a = MBC in the absence of INF 401, Table 2, S. aureus SA1199, antibiotic alone, unit inferred
[11] = Table 1, S. aureus SA1199, unit not given
[12] = Table 2, S. aureus SA1199, unit inferred

In the case of O=C(O)C(NCCNC(C(=O)O)c1ccccc1O)c1ccccc1O (stereo not drawn) [EDDHA], the “effect of iron chelator on killing by INF 401” value [1] is reported as “completely ablate killing”.
With CC[C@H]1OC(=O)[C@H](C)[C@@H](O[C@H]2C[C@@](C)(OC)[C@@H](O)[C@H](C)O2)[C@H](C)[C@@H](O[C@@H]2O[C@H](C)C[C@H](N(C)C)[C@H]2O)[C@](C)(O)C[C@@H](C)C(=O)[C@H](C)[C@@H](O)[C@]1(C)O [Erythromycin] the “bactericidal concentration of antibiotic alone as multiple of MIC” value ([2]; S. aureus, absence of INF 401) was 16-32 ×MIC, the “Minimal Bactericidal Concentration (greater than 1000-fold decrease in cell viability), antibiotic alone” value ([2]; S. aureus, not by NCCLS procedure) was 16 to 32 µg/mL and the MIC ([2]; Staphylococcus aureus, SA1199) was 1 µg/mL. The MBC [2, 9] was 16 to 32 µg/mL, the MBC [2, 10] was greater than 8 µg/mL and the “MBC^b = MBC in the presence of 5 μg/ml of INF 401” value (shortened to “MBC^b = MBC … of INF 401”) [2, 11] was 1. The MIC [2, 12] was 1 µg/mL, the “effect of single agent on growth of S. aureus in time kill study” value ([3]; INF 401 5 μg/ml alone, erythromycin 2×MIC alone) was “bacteriostatic” and the “bactericidal concentration in the absence of INF 401 as multiple of MIC” value [4] was 1 ×MIC. The “MBC^b = MBC in the presence of 10 μg/ml of INF 402” value (“MBC^b = MBC … of INF 402” below) [5] was 1.
CC[n+]1c(-c2ccccc2)c2cc(N)ccc2c2ccc(N)cc21 [Ethidium bromide] showed an MIC ([2]; Staphylococcus aureus, SA1199) of 16 µg/mL, an MBC [2, 9] greater than 128 µg/mL and an MBC [2, 10] greater than 128 µg/mL. The “MBC^b = MBC … of INF 401” value [2, 11] was greater than 128, the MIC [2, 12] was 16 µg/mL and the “MBC^b = MBC … of INF 402” value [5] was greater than 128.
In the case of COc1ccc(C(=O)N(O)c2ccccc2)cc1 [INF 402], the “lowest concentration at which the potentiator is active (titration in the presence of erythromycin)” value [6] is reported as 1.25 to 2.5 µg/mL and the “effect on viability of S. aureus in combination with a bacteriostatic concentration of erythromycin” value [6] is reported as “reduced the viability”.
In the case of Cc1cc(C)c2ccc(NN)nc2c1O [INF 406], the “lowest concentration at which the potentiator is active (titration in the presence of erythromycin)” value [6] is reported as 0.6 µg/mL and the “effect on viability of S. aureus in combination with a bacteriostatic concentration of erythromycin” value [6] is reported as “reduced the viability”.
In the case of CO[C@H]1/C=C/O[C@@]2(C)Oc3c(C)c(O)c4c(O)c(c(/C=N/N5CCN(C)CC5)c(O)c4c3C2=O)NC(=O)/C(C)=C\C=C\[C@H](C)[C@H](O)[C@@H](C)[C@@H](O)[C@@H](C)[C@H](OC(C)=O)[C@@H]1C [Rifampin], the MIC ([2]; Staphylococcus aureus, SA1199) is reported as 0.009 µg/mL, the MBC [2, 9] is reported as 0.06 µg/mL and the “MBC^b = MBC … of INF 401” value [2, 11] is reported as 0.0019. For the same molecule, the MIC ([7]; Staphylococcus aureus, ATCC29213, planktonic population) was 7.5 ng/mL and the MBEC ([7]; biofilm population) was greater than 2 µg/mL.
CN(C)[C@@H]1C(O)=C(C(N)=O)C(=O)[C@@]2(O)C(O)=C3C(=O)c4c(O)cccc4[C@@](C)(O)[C@H]3C[C@@H]12 [Tetracycline] was tested, and the MBC [2, 9] was 8 µg/mL, the MBC [2, 10] was greater than 8 µg/mL and the “MBC^b = MBC … of INF 401” value [2, 11] was 0.25. For the same molecule, the “reduction in cell viability, antibiotic in combination with INF 401” value ([3]; antibiotic 1×MIC + 5 μg/ml INF 401) was 3 log10, the “bactericidal concentration in the absence of INF 401 as multiple of MIC” value [4] was 4 ×MIC and the “MBC^b = MBC … of INF 402” value [5] was 2.
For COc1cc(Cc2cnc(N)nc2N)cc(OC)c1OC [Trimethroprim], the MBC^a = MBC in the absence of INF 401 ([2]; Table 1, S. aureus SA1199, antibiotic alone, unit inferred) was 32 µg/mL, the “MBC^b = MBC … of INF 401” value [2, 11] was 8 and the MIC [2, 11] was 1.
With CCOc1cccc(/C=N/NC(=O)Cc2ccc(C)cc2)c1O [drawing 37] the “Activity (minimal concentration required to kill 99.9% of S. aureus)” value [6] was greater than 10 µg/mL and the “^55Fe Accm.” value [8] was 1,200 DPM.
For CCOc1cccc(/C=N/NC(=O)Cc2ccc(C)cc2)c1O [drawing 38], the “Activity (minimal concentration required to kill 99.9% of S. aureus)” value [6] was 1.25 µg/mL and the “^55Fe Accm.” value [8] was 17,400 DPM.
